The text below walks through data of patent publication US20250186456A1, “PYRIMIDINE-FUSED CYCLIC COMPOUND AND PREPARATION METHOD AND USE THEREOF” (Genfleet Therapeutics (Shanghai) Inc., priority 2021, published 2025).

Structures are written as SMILES.

As a reminder, the IC50 is the concentration that inhibits the measured activity by half.

The first assay deals with p-ERK in AGS cells (KRAS G12D mutation). The assay is described as follows: Cell p-ERK assay (HTRF, Advance ERK phospho-T202/Y204 kit). The format is cell-based, human. The note with it: AGS cells, 3 hours incubation with compound, HTRF; read-out: AGS p-ERK IC50. The protocol:
AGS was purchased from ATCC; catalog No: CRL-1739; F12K was purchased from Gibco; catalog No: 21127-022; FBS was purchased from Gibco; catalog No: 10099-141C; trypsin (containing EDTA) was purchased from Gibco, catalog No: 25200-072; DMSO was purchased from VWRAMRESCO; catalog No: 0231-500 ML; 96-well cell culture plates were purchased from Corning; catalog No: 3599; white opaque 96-well plates were purchased from Cisbio; catalog No: 66PL96025; Advance ERK phospho-T202/Y204 kit was purchased from Cisbio; catalog No: 64AERPEH; cell counters were purchased from CHEMOMETEC; model No: NC-200; microplate reader was purchased from PerkinElmer; model No: Envison.
AGS is an endogenous human gastric adenocarcinoma cell line containing the KRAS^G12D mutation, cultured in F12K+10% FBS medium. On the first day of the experiment, cells in the logarithmic growth phase were taken, digested with trypsin (containing EDTA), collected, and counted. Approximately 20000 cells/well were seeded in a 96-well cell culture plate and cultured overnight in an incubator with 5% CO2. 1000X stock solutions of compounds at a 3.16-fold concentration gradient were prepared using DMSO, and diluted 200-fold into a 5X compound stock solution using the medium described above. The 5X compound stock solution was added to each cell culturing well the day after cell seeding at a final concentration of 1X and a DMSO content of 0.1%. DMSO was used as a control in the experiment. After the compound was added and the incubation was kept for 3 hours, the medium in the culture wells was removed. 50 μl of Cell lysis solution (from Advance ERK phospho-T202/Y204 kit, the same below) was added to each well, mixed well, and incubated for 30 minutes and then 16 μl of the mixed solution was transferred to a white opaque 96-well plate, another 16 μl of cell lysis solution was added to a well as a blank well. After transferring, 4 μl of p-ERK HTRF antibody mixture (from Advance ERK phospho-T202/Y204 kit) was added to each well. After incubation for 4 hours, HTRF fluorescence value (RLU) was read by a microplate reader, and p-ERK level inhibition rate (IR (%)=(RLU control-RLU compound)/(RLU control-RLU blank)×100%) of the compounds was calculated. The concentration of the compounds and corresponding cell p-ERK level inhibition rate were fitted using Prism 8 four-parameters method, and the IC50 value was calculated.
For orientation: In TR-FRET formats the signal depends on donor and acceptor labels being close together.
`CCc1cccc2cc(O)cc(-c3cc4nc(OC[C@@]56CCCN5C[C@H](F)C6)nc5c4c(c3Cl)OC[C@@H]3[C@@H]4CC[C@H](CN53)N4)c12` [Example Z381, 4-((5aS,6S,9R)-3-Chloro-13-(((2R,7aS)-2-Fluorotetrahydro-1H-Pyrrolizin-7a (5H)-Yl)Methoxy)-5a,6,7,8,9,10-Hexahydro-5H-6,9-Epiminoazepino[2′,1′: 3,4][1,4]Oxazepino[5,6,7-De]Quinazolin-2-Yl)-5-Ethylnaphthalen-2-Ol]: the IC50 is 436 nM.

The assay is the same for the next values; noted with them: Homo sapiens; AGS cells, 3 hours incubation with compound, HTRF; read-out: AGS p-ERK IC50.
On to `C=C1CN2C[C@H](F)CC2(COc2nc3c4c(nc(-c5nc(N)cc(C)c5C5CC5)c(F)c4n2)O[C@@H](C)[C@@H]2[C@@H]4CC[C@H](CN32)N4)C1` (stereo partly drawn) [Example Z676, 5-cyclopropyl-6-((5S,5aS,6S,9R)-1-fluoro-12-(((2R)-2-fluoro-6-methylenetetrahydro-1H-pyrrolizin-7a (5H)-yl)methoxy)-5-methyl-5a,6,7,8,9,10-hexahydro-5H-4-oxa-3,10a, 11, 13, 14-pentaaza-6,9-methanonaphtho[1,8-ab]heptalen-2-yl)-4-methylpyridin-2-amine], for which the concentration for half-maximal inhibition (IC50) stood at 70 nM.
The same measure, in the same setting: the value for `C#Cc1c(F)ccc2cccc(-c3nc4c5c(nc(OCC67CCCN6CC(=C)C7)nc5c3F)N3C[C@H]5CC[C@H](N5)[C@H]3CCO4)c12` (stereo partly drawn) [Example Z640, (6aR,7S, 10R)-2-(8-ethynyl-7-fluoronaphthalen-1-yl)-1-fluoro-13-((2-methylenetetrahydro-1H-pyrrolizin-7a (5H)-yl)methoxy)-5,6,6a,7,8,9,10,11-octahydro-4-oxa-3,11a, 12, 14, 15-pentaaza-7,10-methanocyclohepta[4,5]cycloocta[1,2,3-de]naphthalene] was 65.5 nM; that for `C#Cc1c(F)ccc2cccc(-c3nc4c5c(nc(OCC67CC(F)CN6CCC7=C)nc5c3F)N3C[C@H]5CC[C@H](N5)[C@H]3[C@H](C)O4)c12` (stereo partly drawn) [Example Z609, (5S,5aS,6S,9R)-2-(8-ethynyl-7-fluoronaphthalen-1-yl)-1-fluoro-12-((6-fluoro-1-methylenetetrahydro-1H-pyrrolizin-7a (5H)-yl)methoxy)-5-methyl-5a,6,7,8,9,10-hexahydro-5H-4-oxa-3,10a,11,13,14-pentaaza-6,9-methanonaphtho[1,8-ab]heptalene] was 49.2 nM.
Take `C#Cc1cccc2c(N)ccc(-c3nc4c5c(nc(OCC67CC(=C)CN6C[C@H](F)C7)nc5c3F)N3C[C@H]5CC[C@H](N5)[C@H]3[C@H](C)O4)c12` (stereo partly drawn) [Example Z686, 5-ethynyl-4-((5S,5aS,6S,9R)-1-fluoro-12-(((2R)-2-fluoro-6-methylenetetrahydro-1H-pyrrolizin-7a (5H)-yl)methoxy)-5-methyl-5a,6,7,8,9,10-hexahydro-5H-4-oxa-3,10a,11,13,14-pentaaza-6,9-methanonaphtho[1,8-ab]heptalen-2-yl) naphthalen-1-amine]: the concentration for half-maximal inhibition (IC50) came to 447 nM.
On to `C=C1CN2C[C@H](F)CC2(COc2nc3c4c(nc(-c5cccc6cccc(C#N)c56)c(F)c4n2)O[C@@H](C)[C@@H]2[C@@H]4CC[C@H](CN32)N4)C1` (stereo partly drawn) [Example Z673, 8-((5S,5aS,6S,9R)-1-fluoro-12-(((2R)-2-fluoro-6-methylenetetrahydro-1H-pyrrolizin-7a (5H)-yl)methoxy)-5-methyl-5a,6,7,8,9,10-hexahydro-5H-4-oxa-3,10a,11,13,14-pentaaza-6,9-methanonaphtho[1,8-ab]heptalen-2-yl)-1-naphthonitrile], for which the IC50 came to 147 nM.
On to `C#Cc1c(F)ccc2cccc(-c3nc4c5c(nc(OCC67CCCN6CC(=CF)C7)nc5c3F)N3C[C@H]5CC[C@H](N5)[C@H]3[C@@H](C)O4)c12` (stereo partly drawn) [Example Z630, (5R,5aS,6S,9R)-2-(8-ethynyl-7-fluoronaphthalen-1-yl)-1-fluoro-12-((2-(fluoromethylene)tetrahydro-1H-pyrrolizin-7a (5H)-yl)methoxy)-5-methyl-5a,6,7,8,9,10-hexahydro-5H-4-oxa-3,10a, 11, 13,14-pentaaza-6,9-methanonaphtho[1,8-ab]heptalene], for which the IC50 stood at 729 nM.
Turning to `C#Cc1cccc2cc(N)cc(-c3nc4c5c(nc(OC)nc5c3F)N3C[C@H]5CC[C@H](N5)[C@H]3[C@H](C)O4)c12` [Example Z705, 5-ethynyl-4-((5S,5aS,6S,9R)-1-fluoro-12-methoxy-5-methyl-5a,6,7,8,9,10-hexahydro-5H-4-oxa-3,10a, 11,13,14-pentaaza-6,9-methanonaphtho[1,8-ab]heptalen-2-yl) naphthalen-2-amine], the concentration for half-maximal inhibition (IC50) was found to be 195 nM.
Same read-out and setting: the value for `C#Cc1c(F)ccc2cccc(-c3nc4c5c(nc(OCC67CC(=C)CN6C[C@@H]6C[C@@H]67)nc5c3F)N3C[C@H]5CC[C@H](N5)[C@H]3[C@H](C)O4)c12` (stereo partly drawn) [Example Z605, (5S,5aS,6S,9R)-2-(8-ethynyl-7-fluoronaphthalen-1-yl)-1-fluoro-5-methyl-12-(((1aR,6bS)-5-methylenehexahydrocyclopropa[a]pyrrolizin-6a (4H)-yl)methoxy)-5a,6,7,8,9,10-hexahydro-5H-4-oxa-3,10a,11,13,14-pentaaza-6,9-methanonaphtho[1,8-ab]heptalene] was 554 nM; that for `C=C1CN2C[C@H](F)CC2(COc2nc3c4c(nc(-c5cc(N)nc(C)c5C5CC5)c(F)c4n2)O[C@@H](C)[C@@H]2[C@@H]4CC[C@H](CN32)N4)C1` (stereo partly drawn) [Example Z680, 5-Cyclopropyl-4-((58,5aS,6S,9R)-1-Fluoro-12-(((2R)-2-Fluoro-6-Methylenetetrahydro-1H-Pyrrolizin-7a (5H)-Yl)Methoxy)-5-Methyl-5a,6,7,8,9,10-Hexahydro-5H-4-Oxa-3,10a,11,13,14-Pentaaza-6,9-Methanonaphtho[1,8-Ab]Heptalen-2-Yl)-6-Methylpyridin-2-Amine] was 143 nM.

The next assay has as its system AGS cells (KRAS G12D). Nature of the assay: Cell proliferation inhibition assay, 3D, CellTiter-Glo 3D, AGS. The format is cell-based, human. The note with it: Homo sapiens, 120 h, AGS 3D sphere model, 5 days incubation. From the text:
AsPC-1 was purchased from ATCC; catalog No: CRL-1682; AGS was purchased from ATCC; catalog No: CRL-1739; RPMI1640 was purchased from Gibco; catalog No: 11875-093 2235123; F12K was purchased from Gibco; catalog No: 21127-022; FBS was purchased from Gibco; catalog No: 10099-141C; trypsin (containing EDTA) was purchased from Gibco; catalog No: 25200-072; CellTiter Glo-3D was purchased from Progema; catalog No: G9683; 384-well sphere plates were purchased from Corning; catalog No: 3830; white opaque 384-well plates were purchased from Corning; catalog No: 3570; cell counters were purchased from CHEMOMETEC; model: NC-200; microplate reader was purchased from PerkinElmer; model: Envison;
AsPC-1 is an endogenous human pancreatic cancer cell containing KRAS^G12D mutation, cultured in RPMI-1640 medium containing 10% FBS; AGS is a human gastric cancer cell line containing KRAS^G12D, cultured in F-12K medium containing 10% FBS. Cells in the logarithmic growth phase were taken, digested with trypsin (containing EDTA), collected, and counted. 800 AsPC-1 cells/well or 400 AGS cells/well, respectively, were seeded in a 384-well sphere plate and cultured overnight at 5% CO2 to establish a 3D cell model. 1000X stock solutions of compounds at a 3.16-fold concentration gradient of were prepared using DMSO, diluted 100-fold into a 10X compound stock solution using the medium described above. The 10X compound stock solution was added to each cell on 2nd day after cell seeding at a final concentration of 1X and a DMSO content of 0.1%. DMSO was used as a control in the experiment, and the medium was used as blank. After the addition of the compounds, the cells were incubated for 5 days. 30 μl of CellTiter-Glo work solution was added to each well, mixed well, and incubated for 30 minutes. After standing at room temperature for 30 minutes, 40 μl of the mixed solution was transferred to an opaque 384-well plate with a white clear bottom. Luminescence chemiluminescence value was read by a microplate reader, and the cell proliferation inhibition rate (IR (%)=(RLU control-RLU compound)/(RLU control-RLU blank)×100%) was calculated. The gradiently diluted concentration of the compounds and corresponding cell proliferation inhibition rate were fitted using XLFit four-parameters method, and the IC50 value was calculated. […] The results of some exemplary compounds are shown in Table 2 (“−” represents untested).
Compound `C=C1CN2C[C@H](F)CC2(COc2nc3c4c(nc(-c5nc(N)cc(C)c5C5CC5)c(F)c4n2)O[C@@H](C)[C@@H]2[C@@H]4CC[C@H](CN32)N4)C1` (stereo partly drawn) [Example Z676, 5-cyclopropyl-6-((5S,5aS,6S,9R)-1-fluoro-12-(((2R)-2-fluoro-6-methylenetetrahydro-1H-pyrrolizin-7a (5H)-yl)methoxy)-5-methyl-5a,6,7,8,9,10-hexahydro-5H-4-oxa-3,10a, 11, 13, 14-pentaaza-6,9-methanonaphtho[1,8-ab]heptalen-2-yl)-4-methylpyridin-2-amine] returned an IC50 of 267 nM.
In turn, `CCc1cccc2cccc(-c3nc4c5c(nc(OC[C@@]67CCCN6C[C@H](F)C7)nc5c3F)N3C[C@H]5CC[C@H](N5)[C@H]3[C@H](CC)O4)c12` [Example Z592, (5S,5aS,6S,9R)-5-ethyl-2-(8-ethylnaphthalen-1-yl)-1-fluoro-12-(((2R,7aS)-2-fluorotetrahydro-1H-pyrrolizin-7a (5H)-yl)methoxy)-5a,6,7,8,9,10-hexahydro-5H-4-oxa-3,10a,11,13,14-pentaaza-6,9-methanonaphtho[1,8-ab]heptalene] registered an IC50 of 354 nM.
`C=C1CN2C[C@H](F)CC2(COc2nc3c4c(nc(-c5cc(N)nc(C)c5C5CC5)c(F)c4n2)O[C@@H](C)[C@@H]2[C@@H]4CC[C@H](CN32)N4)C1` (stereo partly drawn) [Example Z680, 5-Cyclopropyl-4-((58,5aS,6S,9R)-1-Fluoro-12-(((2R)-2-Fluoro-6-Methylenetetrahydro-1H-Pyrrolizin-7a (5H)-Yl)Methoxy)-5-Methyl-5a,6,7,8,9,10-Hexahydro-5H-4-Oxa-3,10a,11,13,14-Pentaaza-6,9-Methanonaphtho[1,8-Ab]Heptalen-2-Yl)-6-Methylpyridin-2-Amine] came in with an IC50 of 386 nM.
